PubChem BioAssay AID1963858 (Molecular Pharmacology Branch, DTP, NCI, 2024)
pIC50: −log10 of the molar value.

Tested on: HOP-62 multicell spheroids with HUVEC/MSC, viability
Assay: Anticancer human tumor HOP-62 cell line growth inhibition [KRAS2];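 note: viability read after a week of compound exposure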;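 for viability, T/C: 100% = DMSO vehicle-treated spheroids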
Conditions: for pIC50: curve of first compound; for viability, T/C: stronger effect = lower value
Excerpt: Multicellular complex tumor spheroid response to RAS pathway inhibitors in combination with a targeted agents in patient-derived cell lines with oncogenic KRAS variants from multiple cancer types
A high-throughput screen of multi-cell type tumor spheroids was designed to identify active combinations of targeted small molecules and KRAS pathway inhibitors. Complex spheroids include a stromal component modeled by human endothelial cells (HUVEC) and fibroblasts modeled by human mesenchymal stem cells (MSCs). The concentration ranges selected for each drug and investigational agent were based upon clinically achievable concentrations if the clinical Cmax of the agent was known.
Compounds. The drugs and investigational agents: BI-3406 (NSC825286), BAY-293 (NSC824723), batoprotafib (TNO155; NSC825523), sotorasib (AMG 510; NSC818433), MRTX1257 (NSC819558), elimusertib (BAY 1895344; NSC800525), molibresib (GSK525762; NSC774829), temuterkib (LY3214996; NSC803410), venetoclax (NSC766270), alisertib (NSC759677), olaparib (NSC753686), talazoparib (NSC767125), erdafitinib (NSC781556), ipatasertib (NSC767898), cabozantinib (NSC761068), nintedanib (NSC756659), abemaciclib (NSC768073), docetaxel (NSC628503), trametinib (NSC758246), and sapanisertib (NSC764658) were obtained from the National Cancer Institute (NCI) Developmental Therapeutics Program Chemical Repository. The FDA-approved anticancer drug set is available from the Developmental Therapeutics Program. […] The stock solutions were prepared in dimethyl sulfoxide (DMSO, Sigma-Aldrich, St. Louis, MO, cat. D2650) at 800-fold the tested concentration and stored at -70 degrees C prior to their use. All drugs and investigational agents were tested over a range starting from a high concentration at or near the clinical Cmax and decreasing in half-log increments. If the clinical Cmax for an agent had not been determined, the highest concentration tested was 10 microM.
Cell Culture. All cells were maintained in an incubator at 37 degrees C and 5% CO2 with 95% humidity. The PDC lines were cultured according to standard operating procedures established by the NCI PDMR (https://pdmr.cancer.gov/sops/default.htm). Briefly, all PDCs were thawed and cultured in Matrigel-coated flasks prepared with a working solution of 1X Ham's F-12 nutrient mix, without supplementation (Invitrogen, Waltham, MA, cat. 11765054), 100 U/mL penicillin-streptomycin (Invitrogen, cat. 15140122), and 2.5% Matrigel (Corning Inc., Corning, NY, cat. 354248) for the first three passages. All PDCs were cultured in complete DMEM/F-12 media containing advanced DMEM/F-12 (Invitrogen, cat. 12634028), 4.9% defined fetal bovine serum, heat inactivated (HyClone Laboratories Inc., Logan, UT, cat. SH30070.03HI), 389 ng/mL hydrocortisone (Sigma-Aldrich, cat. H4001), 9.7 ng/mL human EGF recombinant protein (Invitrogen, cat. PHG0313), 23.4 microg/mL adenine (Sigma-Aldrich, cat. A2786), 97.3 U/mL penicillin-streptomycin (Invitrogen, cat. 15140122), 1.9 mM L-glutamine (Invitrogen, cat. 25030081), and 9.7 microM Y-27632 dihydrochloride (Tocris Bioscience, Bristol, United Kingdom, cat. 1254). The PDCs were cultured in complete DMEM/F12 media without 9.7 microM Y-27632 dihydrochloride for at least two passages prior to the screen. The established cell line HOP-62 was cultured in RPMI 1640 medium, HEPES (Invitrogen, cat. 22400105) with 10% defined fetal bovine serum (HyClone Laboratories Inc., cat. SH30070.03) and 2 mM L-glutamine (Invitrogen, cat. 25030081). The pooled donor HUVEC were cultured in endothelial cell growth medium 2 (PromoCell, Heidelberg, Germany, cat. C-22011) and the hMSC were cultured in mesenchymal stem cell growth medium 2 (PromoCell, cat. C-28009). For all experiments, HUVEC and hMSC were used at passages </=5, while the malignant cell lines were used at passages </=15. […]

[1] = second compound 0.1 µM, first compound 0.01 µM
[2] = second compound 0.1 µM, first compound 0.0316 µM
[3] = second compound 0.1 µM, first compound 0.1 µM
[4] = second compound 0.1 µM, first compound 0.316 µM
[5] = second compound 0.1 µM, first compound 1 µM
[6] = second compound 0.1 µM, first compound 3.16 µM
[7] = second compound 0.316 µM, first compound 0.01 µM
[8] = second compound 0.316 µM, first compound 0.0316 µM
[9] = second compound 0.316 µM, first compound 0.1 µM
[10] = second compound 0.316 µM, first compound 0.316 µM
[11] = second compound 0.316 µM, first compound 1 µM
[12] = second compound 0.316 µM, first compound 3.16 µM
[13] = second compound 1 µM, first compound 0.01 µM
[14] = second compound 1 µM, first compound 0.0316 µM
[15] = second compound 1 µM, first compound 0.1 µM
[16] = second compound 1 µM, first compound 0.316 µM
[17] = second compound 1 µM, first compound 1 µM
[18] = second compound 1 µM, first compound 3.16 µM
[19] = second compound 3.16 µM, first compound 0.01 µM
[20] = second compound 3.16 µM, first compound 0.0316 µM
[21] = second compound 3.16 µM, first compound 0.1 µM
[22] = second compound 3.16 µM, first compound 0.316 µM
[23] = second compound 3.16 µM, first compound 1 µM
[24] = second compound 3.16 µM, first compound 3.16 µM
[25] = second compound 10 µM, first compound 0.01 µM
[26] = second compound 10 µM, first compound 0.0316 µM
[27] = second compound 10 µM, first compound 0.1 µM
[28] = second compound 10 µM, first compound 0.316 µM
[29] = second compound 10 µM, first compound 1 µM
[30] = second compound 10 µM, first compound 3.16 µM
[31] = second compound 0.1 µM, first compound 10 µM
[32] = second compound 0.316 µM, first compound 10 µM
[33] = second compound 1 µM, first compound 10 µM
[34] = second compound 3.16 µM, first compound 10 µM
[35] = second compound 10 µM, first compound 10 µM

| SMILES | pIC50 (second compound 0.1 µM) | pIC50 (second compound 0.316 µM) | pIC50 (second compound 1 µM) | pIC50 (second compound 3.16 µM) | pIC50 (second compound 10 µM) | viability, T/C [2] [%] | viability, T/C [3] [%] | viability, T/C [4] [%] | viability, T/C [5] [%] | viability, T/C [6] [%] | viability, T/C [8] [%] | viability, T/C [9] [%] | viability, T/C [10] [%] | viability, T/C [11] [%] | viability, T/C [14] [%] | viability, T/C [15] [%] | viability, T/C [20] [%] | viability, T/C [21] [%] | viability, T/C [26] [%] | viability, T/C [27] [%] | also measured |
| --- | --- | --- | --- | --- | --- | --- | --- | --- | --- | --- | --- | --- | --- | --- | --- | --- | --- | --- | --- | --- | --- |
| CC(=O)OC12COC1CC(O)C1(C)C(=O)C(O)C3=C(C)C(OC(=O)C(O)C(NC(=O)OC(C)(C)C)c4ccccc4)CC(O)(C(OC(=O)c4ccccc4)C21)C3(C)C (stereo not given) + C=CC(=O)N1CCN(c2nc(=O)n(-c3c(C)ccnc3C(C)C)c3nc(-c4c(O)cccc4F)c(F)cc23)C(C)C1 | > 8.00 | > 8.00 | > 8.00 | > 8.00 | > 8.00 | 27.3 | 26.8 | 25.1 | 25.2 | 28.5 | 23.9 | 24.7 | 27.3 | 24.9 | 23 | 28 | 25.4 | 27 | 26.9 | 27.9 | viability, T/C [1]: 24.3%; viability, T/C [7]: 29.5%; viability, T/C [12]: 31.1%; viability, T/C [13]: 29.4%; viability, T/C [16]: 27.8%; viability, T/C [17]: 30.2%; viability, T/C [18]: 30%; viability, T/C [19]: 32.8%; viability, T/C [22]: 35.1%; viability, T/C [23]: 32.5%; viability, T/C [24]: 33.1%; viability, T/C [25]: 28.1%; viability, T/C [28]: 29.9%; viability, T/C [29]: 30.8%; viability, T/C [30]: 34.6% |
| CN(C)C/C=C/C(=O)Nc1cc2c(Nc3ccc(F)c(Cl)c3)ncnc2cc1O[C@H]1CCOC1 + C=CC(=O)N1CCN(c2nc(=O)n(-c3c(C)ccnc3C(C)C)c3nc(-c4c(O)cccc4F)c(F)cc23)C(C)C1 | < 7.00 | < 7.00 | < 7.00 | < 7.00 | 7.72 | 54.4 | 65.7 |  |  |  | 51.1 | 58 |  |  | 61.1 | 62.4 | 63.4 | 54 | 48.6 | 42.3 | viability, T/C (second compound 0.1 µM, first compound 0.000316 µM): 65.1%; viability, T/C (second compound 0.1 µM, first compound 0.001 µM): 69.1%; viability, T/C (second compound 0.1 µM, first compound 0.00316 µM): 67.8%; viability, T/C [1]: 58.9%; viability, T/C (second compound 0.316 µM, first compound 0.000316 µM): 79.5%; viability, T/C (second compound 0.316 µM, first compound 0.001 µM): 69.9%; viability, T/C (second compound 0.316 µM, first compound 0.00316 µM): 66%; viability, T/C [7]: 65%; viability, T/C (second compound 1 µM, first compound 0.000316 µM): 81.1%; viability, T/C (second compound 1 µM, first compound 0.001 µM): 80.5%; viability, T/C (second compound 1 µM, first compound 0.00316 µM): 61.9%; viability, T/C [13]: 69.8%; viability, T/C (second compound 3.16 µM, first compound 0.000316 µM): 71.5%; viability, T/C (second compound 3.16 µM, first compound 0.001 µM): 65.1%; viability, T/C (second compound 3.16 µM, first compound 0.00316 µM): 70.9%; viability, T/C [19]: 71.8%; viability, T/C (second compound 10 µM, first compound 0.000316 µM): 56.9%; viability, T/C (second compound 10 µM, first compound 0.001 µM): 51.1%; viability, T/C (second compound 10 µM, first compound 0.00316 µM): 54.5%; viability, T/C [25]: 52% |
| COC(=O)c1ccc2c(C(=Nc3ccc(N(C)C(=O)CN4CCN(C)CC4)cc3)c3ccccc3)c(O)[nH]c2c1 + C=CC(=O)N1CCN(c2nc(=O)n(-c3c(C)ccnc3C(C)C)c3nc(-c4c(O)cccc4F)c(F)cc23)C(C)C1 | > 7.50 | > 7.50 | > 7.50 | > 7.50 | > 7.50 | 40.2 | 30.1 | 25.5 | 23.3 | 24.8 | 36.4 | 29.9 | 26.8 | 25.7 | 37.2 | 32.5 | 40.5 | 31.5 | 47 | 36.2 | viability, T/C [31]: 13%; viability, T/C [12]: 21.7%; viability, T/C [32]: 14.3%; viability, T/C [16]: 26.1%; viability, T/C [17]: 26.9%; viability, T/C [18]: 26.7%; viability, T/C [33]: 2.61%; viability, T/C [22]: 29.9%; viability, T/C [23]: 27.5%; viability, T/C [24]: 22.7%; viability, T/C [34]: 2.66%; viability, T/C [28]: 55.4%; viability, T/C [29]: 30.9%; viability, T/C [30]: 10.2%; viability, T/C [35]: 1.93% |
| O=C(c1cc(Cc2n[nH]c(=O)c3ccccc23)ccc1F)N1CCN(C(=O)C2CC2)CC1 + C=CC(=O)N1CCN(c2nc(=O)n(-c3c(C)ccnc3C(C)C)c3nc(-c4c(O)cccc4F)c(F)cc23)C(C)C1 | 7.40 | 6.57 | 6.15 | 6.60 | > 7.50 | 50.3 | 47.2 | 37.5 | 35.6 | 27.7 | 64 | 61.2 | 45.5 | 40.4 | 59.3 | 54.7 | 58.9 | 50.5 | 52 | 46.1 | viability, T/C [31]: 27.4%; viability, T/C [12]: 37.6%; viability, T/C [32]: 29.3%; viability, T/C [16]: 53.2%; viability, T/C [17]: 49.8%; viability, T/C [18]: 40.8%; viability, T/C [33]: 31.6%; viability, T/C [22]: 48.3%; viability, T/C [23]: 47.8%; viability, T/C [24]: 42.1%; viability, T/C [34]: 37.4%; viability, T/C [28]: 48.8%; viability, T/C [29]: 46.7%; viability, T/C [30]: 43.2%; viability, T/C [35]: 36.8% |
